Assay results taken from US11795177B2, “Substituted quinoline analogs as aldehyde dehydrogenase 1A1 (ALDH1A1) inhibitors” (THE UNITED STATES OF AMERICA, AS REPRESENTED BY THE …, priority 2017, dated 2023).
pIC50: −log10 of the molar value.

Tested on: MIA PaCa-2 cells
Assay: MIA PaCa2 cell-based assay (1,536-well high-content imaging ALDEFLUOR assay)
Parameters: species or system human
Settings: Homo sapiens, 0.5 h, ALDEFLUOR BAAA substrate 500 nM, 30 minutes
Protocol: Example 359. MIA PaCa2 Cell-Based Assay (In Vitro Assay)
1,536-Well High-Content Imaging ALDEFLUOR Assay
The ALDEFLUOR™ kit was purchased from […] Technologies (Vancouver, Canada; #01700). MIA PaCa-2 cells (5 μL; 1,000 cells/well) were dispensed into black, optical quality (cyclic olefin copolymer) clear bottom, medium binding TC treated 1,536-well plates (Aurora Microplates, Whitefish Mont.) using a Multidrop Combi dispenser (ThermoFisher) and incubated overnight (37° C., 5% CO2, 85% RH). Media (RPMI 1640 (Life Technologies, Carlsbad, Calif.), supplemented with 2 mM L-Glutamine (Life Technologies), 10% HyClone™ fetal bovine serum (FBS, GE Healthcare, Piscataway, N.J.) and 100 U/mL penicillin and 100 μg/mL streptomycin (Life Technologies)) was subsequently removed by centrifuging plates upside down using a plate adaptor to collect media. A solution of BAAA substrate ([…] Technologies) and Hoechst 33342 (ThermoFisher, final concentrations of 500 nM and 0.5 nM, respectively) in ALDEFLUOR™ buffer ([…] Technologies #01700) was dispensed onto cells using a Multidrop Combi followed by immediate transfer (23 nL) of compound or control solutions using a Wako Pin-tool (final percentage of DMSO in the cell plates was 0.5%). Unless otherwise noted, all compounds were assayed as 16-point dilutions spanning a final concentration range of 1.4 nM to 47.8 μM. The neutral and positive assay controls were DMSO and DEAB (4.6 μM), respectively. Cells were incubated for 30 minutes or the indicated amount of time at 37° C., 5% CO2, 85% RH to allow the conversion of BAAA into BAA. Supernatant was subsequently removed by centrifugation as described above, then ALDEFLUOR™ buffer (3 μl) was dispensed by Multidrop Combi before imaging on an IN Cell 2200 (GE Healthcare).
The above assay was modified for an online robotic screening system. After cell plating and overnight incubation, 4 μL of media were removed using a 64-tip metal aspirator head on a Wako aspirator station, leaving 1 μL remaining in the well, followed by a 4 μL dispense of BAAA and Hoechst 33342 in ALDEFLUOR™ buffer, for a final concentration of 500 nM and 0.5 nM, respectively Immediately following the dispense, 23 nL of compound or control solutions were transferred using a Wako Pin-tool. Cells were incubated for 30 minutes at 37° C., 5% CO2, 85% RH, followed by a 4 μL media removal using the Wako aspirator, and a subsequent 3 μL addition of ALDEFLUOR™ buffer. Plates were then immediately read on the IN Cell 2200 as described below.
Image Acquisition and Analysis
For images captured on the IN Cell 2200 widefield automated microscope, a 10×0.45 NA Plan Apo objective lens was used to capture the entire well of the 1,536-well plate using standard DAPI (390/18×, 432/48 m) and FITC (475/28×, 525/48 m) filter sets at 50 msec and 100 msec exposures, respectively. Images were subsequently analyzed using IN Cell Investigator v1.6.2 analysis software's canned Multi-Target Analysis algorithm (GE Healthcare). Hoechst stained nuclei were identified using top hat segmentation with a minimum area of 75 μm^2 and sensitivity of 93. BAA-retaining cells captured via FITC channel, were identified using multiscale top hat segmentation with a minimum area of 100 μm^2 and a sensitivity setting of 16. […] Data were plotted using GraphPad Prism software (GraphPad, San Diego, Calif.).

Row | SMILES | pIC50
1 | CS(=O)(=O)N1CCN(C(=O)c2cnc3ccc(F)cc3c2-c2ccc(C3(C#N)CCC3)cc2)CC1 [Cpd. 308, 1-(4-(6-fluoro-3-(4-(methylsulfonyl)piperazine-1-carbonyl)quinolin-4-yl)phenyl)cyclobutanecarbonitrile] | > 6.30
2 | CS(=O)(=O)N1CCN(C(=O)c2cnc3ccc(F)cc3c2N2CCC3(CC2)Cc2ccccc2C3=O)CC1 [Example 201, 1′-(6-fluoro-3-(4-(methylsulfonyl)piperazine-1-carbonyl)quinolin-4-yl)spiro[indene-2,4′-piperidin]-1(3H)-one] | 5.00 to 6.00
3 | O=C(c1cnc2ccc(F)cc2c1N1CCC2(CCCCC2)C1)N1CCN(C(=O)C2CC2)CC1 [Example 79, (4-(cyclopropanecarbonyl)piperazin-1-yl)(6-fluoro-4-(2-azaspiro[4.5]decan-2-yl)quinolin-3-yl)methanone] | < 5.00
4 | CC1(C#N)CCN(c2c(C(=O)N3CCN(S(C)(=O)=O)CC3)cnc3[nH]ncc23)CC1 [Example 235, 4-methyl-1-(5-(4-(methylsulfonyl)piperazine-1-carbonyl)-1H-pyrazolo[3,4-b]pyridin-4-yl)piperidine-4-carbonitrile] | < 5.00
5 | O=C(c1cnc2cc(F)c(F)cc2c1N1CCC2(CC1)OCCO2)N1CCN(C(=O)C2CC2)CC1 [Example 122, (4-(cyclopropanecarbonyl)piperazin-1-yl)(6,7-difluoro-4-(1,4-dioxa-8-azaspiro[4.5]decan-8-yl)quinolin-3-yl)methanone] | 5.00 to 6.00
6 | CS(=O)(=O)N1CCN(C(=O)c2cnc3cc(F)c(F)cc3c2-c2ccc(C3(C#N)CC3)cc2)CC1 [Cpd. 323, 1-(4-(6,7-difluoro-3-(4-(methylsulfonyl)piperazine-1-carbonyl)quinolin-4-yl)phenyl)cyclopropane-1-carbonitrile] | > 6.30
7 | O=C(c1cnc2ccc(F)cc2c1N1C[C@H]2CCCC[C@H]2C1)N1CCN(C(=O)C2CC2)CC1 [Example 83, (4-(cyclopropanecarbonyl)piperazin-1-yl)(6-fluoro-4-((3aR*,7aS*)-hexahydro-1H-isoindol-2(3H)-yl)quinolin-3-yl)methanone] | < 5.00
8 | Cn1ncc2c(N3CCC(C)(C#N)CC3)c(C(=O)N3CCN(S(C)(=O)=O)CC3)cnc21 [Example 206, 4-methyl-1-(1-methyl-5-(4-(methylsulfonyl)piperazine-1-carbonyl)-1H-pyrazolo[3,4-b]pyridin-4-yl)piperidine-4-carbonitrile] | 5.00 to 6.00
9 | C[C@@H]1CN(C(=O)c2cnc3ccc(F)cc3c2N2CCC(C)(C#N)CC2)CCN1S(C)(=O)=O [Example 223, (R)-1-(6-fluoro-3-(3-methyl-4-(methylsulfonyl)piperazine-1-carbonyl)quinolin-4-yl)-4-methylpiperidine-4-carbonitrile] | 5.00 to 6.00
10 | CS(=O)(=O)N1CCN(C(=O)c2cnc3c(F)cc(F)cc3c2-c2ccc(C3(C#N)CC3)cc2)CC1 [Cpd. 324, 1-(4-(6,8-difluoro-3-(4-(methylsulfonyl)piperazine-1-carbonyl)quinolin-4-yl)phenyl)cyclopropane-1-carbonitrile] | > 6.30
11 | CS(=O)(=O)N1CCN(C(=O)c2cnc3ccc(F)cc3c2N2CCC3(CC2)C(=O)Cc2ccccc23)CC1 [Example 247, 1′-(6-fluoro-3-(4-(methylsulfonyl)piperazine-1-carbonyl)quinolin-4-yl)spiro[indene-1,4′-piperidin]-2(3H)-one] | 5.00 to 6.00
12 | CS(=O)(=O)N1CCN(C(=O)c2cnc3ccc(F)cc3c2N2CCC(C#N)CC2)CC1 [Cpd. 305, 1-(6-fluoro-3-(4-(methylsulfonyl)piperazine-1-carbonyl)quinolin-4-yl)piperidine-4-carbonitrile] | < 5.00
13 | COc1ccc2ncc(C(=O)N3CCN(S(C)(=O)=O)CC3)c(-c3ccc(C4(C#N)CC4)cc3)c2c1 [Cpd. 321, 1-(4-(6-methoxy-3-(4-(methylsulfonyl)piperazine-1-carbonyl)quinolin-4-yl)phenyl)cyclopropane-1-carbonitrile] | > 6.30

Further lines, results first:

Row | pIC50 | SMILES
14 | 5.00 to 6.00 | O=C(c1cnc2ccc(F)cc2c1N1CCC2(CCCO2)CC1)N1CCN(C(=O)C2CC2)CC1 [Example 66, (4-(cyclopropanecarbonyl)piperazin-1-yl)(6-fluoro-4-(1-oxa-8-azaspiro[4.5]decan-8-yl)quinolin-3-yl)methanone]
15 | 6.00 to 6.30 | CC1(C#N)CCN(c2c(C(=O)N3CCN(C(=O)C4CC4)CC3)cnc3ccsc23)CC1 [Example 233, 1-(6-(4-(cyclopropanecarbonyl)piperazine-1-carbonyl)thieno[3,2-b]pyridin-7-yl)-4-methylpiperidine-4-carbonitrile]
16 | > 6.30 | CS(=O)(=O)N1CCN(C(=O)c2cnc3ccc(F)cc3c2N2CCC(C=O)(c3ccccc3)CC2)CC1 [Example 257, 1-(6-fluoro-3-(4-(methylsulfonyl)piperazine-1-carbonyl)quinolin-4-yl)-4-phenylpiperidine-4-carbaldehyde]
17 | > 6.30 | N#CC1(c2ccc(-c3c(C(=O)N4CCN(C(=O)C5CC5)CC4)cnc4ccsc34)cc2)CC1 [Example 288, 1-(4-(6-(4-(cyclopropanecarbonyl)piperazine-1-carbonyl)thieno[3,2-b]pyridin-7-yl)phenyl)cyclopropanecarbonitrile]
18 | < 5.00 | O=C(c1cnc2ccc(F)cc2c1N1CCC(c2ccccc2)CC1)N1CCN(C(=O)C2CC2)CC1 [Example 72, (4-(cyclopropanecarbonyl)piperazin-1-yl)(6-fluoro-4-(4-phenylpiperidin-1-yl)quinolin-3-yl)methanone]
19 | > 6.30 | N#CC1(c2ccccc2)CCN(c2c(C(=O)N3CCN(C(=O)C4CC4)CC3)cnc3ccsc23)CC1 [Example 282, 1-(6-(4-(cyclopropanecarbonyl)piperazine-1-carbonyl)thieno[3,2-b]pyridin-7-yl)-4-phenylpiperidine-4-carbonitrile]
20 | > 6.30 | CCC1(C#N)CCN(c2c(C(=O)N3CCN(C(=O)C4CC4)CC3)cnc3ccc(F)cc23)CC1 [Example 202, 1-(3-(4-(cyclopropanecarbonyl)piperazine-1-carbonyl)-6-fluoroquinolin-4-yl)-4-ethylpiperidine-4-carbonitrile]
21 | 5.00 to 6.00 | CC1(C)CCN(c2c(C(=O)N3CCN(C(=O)C4CC4)CC3)cnc3ccc(F)cc23)CC1 [Example 65, (4-(cyclopropanecarbonyl)piperazin-1-yl)(4-(4,4-dimethylpiperidin-1-yl)-6-fluoroquinolin-3-yl)methanone]
22 | 5.00 to 6.00 | CCC1(CC)CCN(c2c(C(=O)N3CCN(C(=O)C4CC4)CC3)cnc3ccc(F)cc23)CC1 [Example 81, (4-(cyclopropanecarbonyl)piperazin-1-yl)(4-(4,4-diethylpiperidin-1-yl)-6-fluoroquinolin-3-yl)methanone]
23 | > 6.30 | CN(C)S(=O)(=O)N1CCN(C(=O)c2cnc3ccc(F)cc3c2N2CCC(C#N)(c3ccccc3)CC2)CC1 [Example 270, 4-(4-(4-cyano-4-phenylpiperidin-1-yl)-6-fluoroquinoline-3-carbonyl)-N,N-dimethylpiperazine-1-sulfonamide]
24 | > 6.30 | N#CC1(c2ccccc2)CCN(c2c(C(=O)N3CCN(C(=O)C4CC4)CC3)cnc3ccc(Cl)cc23)CC1 [Cpd. 313, 1-(6-chloro-3-(4-(cyclopropanecarbonyl)piperazine-1-carbonyl)quinolin-4-yl)-4-phenylpiperidine-4-carbonitrile]
25 | < 5.00 | O=C(c1cnc2ccc(F)cc2c1N1CCC(F)(F)CC1)N1CCN(C(=O)C2CC2)CC1 [Example 63, (4-(cyclopropanecarbonyl)piperazin-1-yl)(4-(4,4-difluoropiperidin-1-yl)-6-fluoroquinolin-3-yl)methanone]
26 | < 5.00 | COc1ccc2ncc(C(=O)N3CCN(C(=O)C4CC4)CC3)c(N3CCC(=O)CC3)c2c1 [Example 67, 1-(3-(4-(cyclopropanecareonyl)piperazine-1-carbonyl)-6-methoxyquinolin-4-yl)piperidin-4-one]
